Here are results for two molecules from PMC6106167, “Small‐Molecule Neuromedin U Receptor 2 Agonists Suppress Food Intake and Decrease Visceral Fat in Animal Models” (Pharmacology Research & Perspectives, 2018).

Assay [1] concerns the target T1, neuromedin U receptor 2 (NMUR2) (Homo sapiens, UniProt Q9GZQ4).
T1 construct: human NMUR2 stably expressed in HEK293 cells
Description: GloSensor cAMP inhibition (Gi mode) in hNMUR2 HEK293 cells; no effect in cells lacking NMUR2; FLIPR calcium EC50 […]. It is filed as cell-based. Particulars: read-out: Gi/o EC50.

Assay [2] addresses T1, neuromedin U receptor 2 (NMUR2). Described as above. It is filed as cell-based. The note with it: read-out: Gi/o EC50. The source holds these as a separate data set.

Structures are written as SMILES. Read-outs that look alike come from different tables or passages of the source.

T1 sequence (Q9GZQ4 whole entry): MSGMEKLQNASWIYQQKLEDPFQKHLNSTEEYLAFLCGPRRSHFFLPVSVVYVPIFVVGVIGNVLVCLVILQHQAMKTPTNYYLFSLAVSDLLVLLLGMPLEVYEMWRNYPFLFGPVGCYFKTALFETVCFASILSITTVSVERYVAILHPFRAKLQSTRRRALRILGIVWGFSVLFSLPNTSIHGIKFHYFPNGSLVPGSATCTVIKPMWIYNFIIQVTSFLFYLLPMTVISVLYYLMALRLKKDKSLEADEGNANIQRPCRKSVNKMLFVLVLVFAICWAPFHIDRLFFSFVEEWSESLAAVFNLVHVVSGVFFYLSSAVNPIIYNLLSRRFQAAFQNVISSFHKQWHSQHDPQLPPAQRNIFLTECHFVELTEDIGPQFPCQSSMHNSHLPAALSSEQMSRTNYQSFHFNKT

On to `N=C(N)NCCOC(c1ccccc1)(c1ccccc1)c1ccccc1` [NY0116], for which the EC50 in assay [1] was 1.69 nM.

Consider `N=C(N)NCCCOC(c1ccccc1)(c1ccccc1)c1ccccc1` [NY0128], for which the EC50 in assay [2] turned out to be 0.71 nM.
